Patent US20250288571A1 (Nested Therapeutics, Inc., priority 2024, published 2025)

Columns and labels:
pMEK [1] = experiment: pMEK AlphaLISA (MEK1 pS218/222), A549 cells, EGF stimulated; format: cell-based; conditions: Homo sapiens, 2 h compound, EGF 30 ng/ml 15 min
Method: (§1) Determination of pMEK IC50s
(§2) A549 cells were cultured in F12K/10% FBS media (ATCC CAT #21127022) and were seeded at 10000 cells/well and HCT116 cells were cultured in McCoy's 5A/10% FBS media (Gibco Cat #30-2007) were seeded at 15000 cells/well in 384 microplates (Corning CAT #3765). Cells were incubated overnight in a TC incubator. Compounds were serially diluted and added to cells for 2 h in a TC incubator. At the end of the 2 h EGF (R&D Systems 236-EG-200) was added at a final EGF concentration of 30 ng/ml and incubated for 15 minutes at 37° C. in a TC incubator. AlphaLisa (Perkin Elmer) was performed according to manufacturer's instructions (Perkin Elmer CAT #ALPHA.SF ULTRA MEK1 PS218/222). The percent (%) inhibition at each concentration of compound is calculated based on and relative to the AlphaLISA signal in the HPE and ZPE control wells contained within each assay plate. The ZPE control wells contain cells and DMSO as 0% inhibition, and the HPE control wells only contain cells and control compound (Sellekchem Staurosporin CAT #S1421) as 100% inhibition.

pMEK [2] = experiment: pMEK AlphaLISA (MEK1 pS218/222), HCT116 cells, EGF stimulated; format: cell-based; conditions: Homo sapiens, HCT-116, 2 h compound, EGF 30 ng/ml 15 min
Method: as §1, §2

HCT116 cells = experiment: HCT116 Cell Titer Glow assay (CTG); conditions: Homo sapiens, HCT-116, 72 h; for IC50: read-out: CTG IC50 (nM) Cell Line: HCT116.20; for viability at 1000 µM: read-out: CTG % cell viability 1000 uM HCT116.20, HCT116 cells, 72 hours, 1000 uM, percent cells remaining after treatment
IPC298 cells = experiment: IPC298 Cell Titer Glow assay (CTG); conditions: Homo sapiens, IPC-298, 72 h; for IC50: read-out: CTG IC50 (nM) Cell Line: IPC298.2; for viability at 100 µM: read-out: CTG % cell viability 100 uM IPC298.2, IPC298 cells, 72 hours, 100 uM, percent cells remaining after treatment

Structure (SMILES)	IC50 (pMEK [1]) [nM]	IC50 (pMEK [2]) [nM]	IC50 (HCT116 cells) [nM]	IC50 (pMEK [2]; numeric value) [nM]	IC50 (IPC298 cells) [nM]	viability at 1000 µM (HCT116 cells) [%]	viability at 100 µM (IPC298 cells) [%]
CNS(=O)(=O)Nc1ccc(Cc2cncc(Nc3ccc(Cl)cc3F)c2C)cc1OC [Example 25, N-(4-chloro-2-fluoro-phenyl)-5-[[3-methoxy-4-(methylsulfamoylamino)phenyl]methyl]-4-methyl-pyridin-3-amine]	> 1000	> 1000					
CNS(=O)(=O)Nc1nccc(Cc2cncc(Nc3ccc(F)cc3F)c2C)c1F [Example 7, N-(2,4-difluorophenyl)-5-({3-fluoro-2-[(methylsulfamoyl)amino]pyridin-4-yl}methyl)-4-methylpyridin-3-amine]	< 10	< 10					
CNS(=O)(=O)Nc1nccc(Cc2cncc(Nc3ccc(C(F)(F)F)cc3F)c2C)c1F [Example 8, 5-({3-fluoro-2-[(methylsulfamoyl)amino]pyridin-4-yl}methyl)-N-[2-fluoro-4-(trifluoromethyl)phenyl]-4-methylpyridin-3-amine]	< 10	< 10					
CNS(=O)(=O)Nc1nccc(Cc2cncc(Nc3ccc(OC)cc3F)c2C)c1F [Example 23, 5-({3-fluoro-2-[(methylsulfamoyl)amino]pyridin-4-yl}methyl)-N-(2-fluoro-4-methoxyphenyl)-4-methylpyridin-3-amine]	< 10	< 10	10 to 100				
CNS(=O)(=O)Nc1nccc(Cc2cncc(Nc3ccc(Cl)cc3F)n2)c1F [Example 21, N-(4-chloro-2-fluoro-phenyl)-6-[[3-fluoro-2-(methylsulfamoylamino)-4-pyridyl]methyl]pyrazin-2-amine]	10 to 100	10 to 100	> 1000		500 to 1000		
CNS(=O)(=O)Nc1nccc(Cc2c[n+]([O-])cc(Nc3ccc(Cl)cc3F)c2C)c1F [Example 14, 3-[(4-chloro-2-fluorophenyl)amino]-5-({3-fluoro-2-[(methylsulfamoyl)amino]pyridin-4-yl}methyl)-4-methylpyridin-1-ium-1-olate]	< 10	< 10					
CNS(=O)(=O)Nc1nccc(Cc2cncc(Nc3ccc(Cl)cc3F)c2)c1F [Example 18, 4-[[5-(4-chloro-2-fluoro-anilino)-3-pyridyl]methyl]-3-fluoro-N-(methylsulfamoyl)pyridin-2-amine]	< 10	< 10	100 to 500		10 to 100		
CNS(=O)(=O)Nc1nccc(Cc2cncc(Oc3ccc(Cl)cn3)c2C)c1F [Example 27, {[4-({5-[(5-chloropyridin-2-yl)oxy]-4-methylpyridin-3-yl}methyl)-3-fluoropyridin-2-yl]sulfamoyl}(methyl)amine]	< 10	< 10	500 to 1000		10 to 100		
CNS(=O)(=O)Nc1nccc(Cc2cncc(Nc3ccc(Cl)cc3F)c2F)c1F [Example 26, 4-[[5-(4-chloro-2-fluoro-anilino)-4-fluoro-3-pyridyl]methyl]-3-fluoro-N-(methylsulfamoyl)pyridin-2-amine]	< 10	< 10	100 to 500		10 to 100		
Cc1c(Cc2ccc(S(C)(=O)=O)cc2F)cncc1Nc1ccc(Cl)cc1F [Example 20, N-(4-chloro-2-fluoro-phenyl)-5-[(2-fluoro-4-methylsulfonyl-phenyl)methyl]-4-methyl-pyridin-3-amine]	> 1000	> 1000					
CNS(=O)(=O)Nc1nccc(Cc2cncc(OC)c2C)c1F [Example 24, ({3-fluoro-4-[(5-methoxy-4-methylpyridin-3-yl)methyl]pyridin-2-yl}sulfamoyl)(methyl)amine]	10 to 100		100 to 500	> 100	< 10		
CNS(=O)(=O)Nc1nccc(Oc2cncc(Nc3ccc(Cl)cc3F)c2C)c1F [Example 15, N-(4-chloro-2-fluorophenyl)-5-({3-fluoro-2-[(methylsulfamoyl)amino]pyridin-4-yl}oxy)-4-methylpyridin-3-amine]	< 10	< 10	10 to 100		< 10		

The next lines start with results.

IC50 (pMEK [1]) [nM]	IC50 (pMEK [2]) [nM]	IC50 (HCT116 cells) [nM]	IC50 (pMEK [2]; numeric value) [nM]	Structure (SMILES)	IC50 (IPC298 cells) [nM]	viability at 1000 µM (HCT116 cells) [%]	viability at 100 µM (IPC298 cells) [%]
10 to 100	10 to 100	> 1000		Cc1c(Cc2ccnc(S(C)(=O)=O)c2F)cncc1Nc1ccc(Cl)cc1F [Example 28, N-(4-chloro-2-fluorophenyl)-5-[(3-fluoro-2-methanesulfonylpyridin-4-yl)methyl]-4-methylpyridin-3-amine]	10 to 100		
< 10	< 10			CNS(=O)(=O)Nc1nccc(Cc2cncc(N(C)c3ccc(Cl)cc3F)c2C)c1F [Example 36, N-(4-chloro-2-fluorophenyl)-5-({3-fluoro-2-[(methylsulfamoyl)amino]pyridin-4-yl}methyl)-N,4-dimethylpyridin-3-amine]			
500 to 1000	> 1000			CNS(=O)(=O)Nc1nccc(Cc2cncc(OCc3ncccc3F)c2C)c1F [Example 34, {[3-fluoro-4-({5-[(3-fluoropyridin-2-yl)methoxy]-4-methylpyridin-3-yl}methyl)pyridin-2-yl]sulfamoyl}(methyl)amine]			
> 1000	> 1000			CNS(=O)(=O)Nc1nccc(Cc2cncc(-c3ncc(Cl)cc3F)c2C)c1F [Example 32, 4-[[5-(5-chloro-3-fluoro-2-pyridyl)-4-methyl-3-pyridyl]methyl]-3-fluoro-N-(methylsulfamoyl)pyridin-2-amine]			
< 10	< 10	< 10		CNS(=O)(=O)Nc1nccc(Cc2cncc(Nc3ccc(Cl)cc3OC)c2C)c1F [Example 35, 4-[[5-(4-chloro-2-methoxy-anilino)-4-methyl-3-pyridyl]methyl]-3-fluoro-N-(methylsulfamoyl)pyridin-2-amine]	< 10		
> 1000	> 1000			CNS(=O)(=O)Nc1nccc(Cc2cncc(-c3ncccc3F)c2C)c1F [Example 31, 3-fluoro-4-[[5-(3-fluoro-2-pyridyl)-4-methyl-3-pyridyl]methyl]-N-(methylsulfamoyl)pyridin-2-amine]			
		10 to 100		CNS(=O)(=O)Nc1nccc(Oc2cncc(Oc3ccc(C4CC4)cc3F)c2C)c1F [Example 102, 4-[[5-(4-cyclopropyl-2-fluoro-phenoxy)-4-methyl-3-pyridyl]oxy]-3-fluoro-N-(methylsulfamoyl)pyridin-2-amine]	< 10		
10 to 100	10 to 100			C=CCOc1cncc(Cc2ccnc(NS(=O)(=O)NC)c2F)c1C [Example 30, 4-[(5-allyloxy-4-methyl-3-pyridyl)methyl]-3-fluoro-N-(methylsulfamoyl)pyridin-2-amine]			
10 to 100	10 to 100			CNS(=O)(=O)Nc1nccc(Cc2cncc(Oc3ncc(Cl)cc3F)c2C)c1F [Example 29, {[4-({5-[(5-chloro-3-fluoropyridin-2-yl)oxy]-4-methylpyridin-3-yl}methyl)-3-fluoropyridin-2-yl]sulfamoyl}(methyl)amine]			
		> 1000		CNS(=O)(=O)Nc1nccc(Cc2cncc(OC3CCC(C)(C)CC3)c2C)c1F [Example 73, 4-[[5-(4,4-dimethylcyclohexoxy)-4-methyl-3-pyridyl]methyl]-3-fluoro-N-(methylsulfamoyl)pyridin-2-amine]	> 1000	75.4	80.8
		100 to 500		CNS(=O)(=O)Nc1nccc(Cc2cncc(Oc3ccc(C)c(F)c3)c2C)c1F [Example 103, 3-fluoro-4-[[5-(3-fluoro-4-methyl-phenoxy)-4-methyl-3-pyridyl]methyl]-N-(methylsulfamoyl)pyridin-2-amine]	< 10		
		< 10		CNS(=O)(=O)Nc1nccc(Oc2cncc(Nc3ccc(C)cc3F)c2C)c1F [Example 79]	< 10		
		> 1000		CNS(=O)(=O)Nc1nccc(Cc2cccc3c2CCCN3c2ccc(Cl)cc2F)c1F [Example 87, 4-[[1-(4-chloro-2-fluoro-phenyl)-3,4-dihydro-2H-quinolin-5-yl]methyl]-3-fluoro-N-(methylsulfamoyl)pyridin-2-amine]	> 1000	95	101
		> 1000		CNS(=O)(=O)Nc1nccc(Cc2cncc(-c3ccc(Cl)cc3F)c2C)c1F [Example 44, [(4-{[5-(4-chloro-2-fluorophenyl)-4-methylpyridin-3-yl]methyl}-3-fluoropyridin-2-yl)sulfamoyl](methyl)amine]	10 to 100	28	
		< 10		CCc1ccc(Nc2cncc(Oc3ccnc(NS(=O)(=O)NC)c3F)c2C)c(F)c1 [Example 80, N-(4-ethyl-2-fluorophenyl)-5-({3-fluoro-2-[(methylsulfamoyl)amino]pyridin-4-yl}oxy)-4-methylpyridin-3-amine]	< 10		
